Measurements reported in patent US6809097B1, “Quinoline derivatives inhibiting the effect of growth factors such as VEGF” (Zeneca Limited, priority 1996, dated 2004).

| melting point | Structure (SMILES) |
| --- | --- |
| 222 to 225 °C | COc1cc2c(Nc3ccc(Cl)cc3F)ccnc2cc1OCc1ccccc1.Cl |
| 247 to 250 °C | COCCOc1cc2nccc(Nc3ccc(Cl)cc3F)c2cc1C#N.Cl |
| 230 to 232 °C | COc1cc2c(Nc3ccc(C)c(OC(C)=O)c3)ccnc2cc1OCc1ccccc1.Cl |
| > 280 °C | COc1cc2nccc(Nc3cc(O)c(C)cc3F)c2cc1OC.Cl |

The remaining lines, values behind:

| Structure (SMILES) | melting point |
| --- | --- |
| COCCOc1cc2nccc(Nc3cc(O)c(C)cc3F)c2cc1C#N.Cl | 300 to 302 °C |
| COCCOc1cc2nccc(Oc3cccc(O)c3)c2cc1C#N [Example 50, 6-cyano-4-(3-hydroxyphenoxy)-7-(2-methoxyethoxy)quinoline] | 159 to 163 °C |
| COc1cc2nccc(Nc3cc(O)c(Cl)cc3F)c2cc1OC.Cl | 312 to 318 °C |
| COc1cc2c(Oc3cc(O)c(C)cc3F)ccnc2cc1OCCCN1CCOCC1 [Example 3, 4-(2-fluoro-5-hydroxy-4-methylphenoxy)-6-methoxy-7-(3-morpholinopropoxy)quinoline] | 210 to 217 °C |
| COc1cc2nccc(Nc3cccc(O)c3)c2cc1OC.Cl | 280 to 283 °C |
| COc1cc2nccc(Oc3cccc(O)c3)c2cc1OC [Example 26, 6,7-dimethoxy-4-(3-hydroxyphenoxy)quinoline] | 140 °C |
| COc1cc2c(Nc3ccc(Cl)cc3F)ccnc2cc1OCCN(C)C.Cl | > 250 °C |
| COc1cc2nccc(Nc3cc(O)c(C)cc3F)c2cc1C#N.Cl | 278 to 281 °C |
| COCCOc1cc2nccc(Nc3ccc(C)c(O)c3)c2cc1C#N.Cl | 275 to 278 °C |
